Measurements reported in patent publication US11959929B2, “Method of quantifying lysergic acid diethylamide (LSD) and 2,3-dihydro-3-hydroxy-2-oxo lysergide (O-H-LSD) in human plasma” (Universitatsspital Basel, priority 2020, dated 2024).

Test: Clinical application: plasma concentration-time profile of LSD and O-H-LSD after a single oral 5 μg LSD dose in healthy volunteers
Assay type: in vivo, human
Conditions: three healthy volunteers; for maximal plasma level (average): single oral dose of 5 μg LSD base in ethanol, LC-MS/MS, O-H-LSD measured as metabolite using 150 μl plasma
Experimental: To examine the application of the developed method, LSD and O-H-LSD concentrations were quantified in plasma samples of three healthy volunteers receiving a single oral dose of 5 μg. This corresponds to a very low LSD dose, used in LSD microdosing clinical trials (Holze et al., 2021a). The study was conducted in accordance with the Declaration of Helsinki and approved by the Medical Ethics Committee of the Academic Hospital of Maastricht and Maastricht University. The use of LSD in humans was authorized by the Dutch Drug Enforcement Administration. All volunteers provided written informed consent prior to study participation. To establish concentration time profiles, blood samples were collected in lithium heparin coated tubes at the following time points: 0, 0.5, 1, 1.5, 2, 3, 4, 6 after treatment. Blood samples were centrifuged, and plasma was frozen at −20° C. until analysis.
The application of the method was assessed by analyzing the PK of LSD and O-H-LSD in three healthy volunteers treated with an oral dose of 5 μg LSD base (FIG. 5). An oral dose of 5 μg LSD base in ethanol (Holze et al., 2021) was administered to three healthy volunteers. Plasma concentrations of LSD and O-H-LSD were quantified before and up to six hours post-treatment. […] Mean values and the standard deviations are illustrated.
The maximal plasma level of LSD and O-H-LSD was on average 178 pg/ml (SD: 30.6 pg/ml) and 10.4 pg/ml (SD: 2.59 pg/ml), respectively. LSD reached Tmax approximately after 1 hour post-treatment, whereas O-H-LSD peaked after 3 hours. The LSD concentrations measured after a dose of only 5 μg were approximately 7 to 18 times higher than the methods limit of quantification. Thus, the PK of LSD could straightforwardly be established also for very low so-called microdoses (Kuypers et al., 2019). In the case of O-H-LSD, a larger amount of plasma sample was required to determine the plasma concentration time profile after a dose of 5 μg. Three times more plasma was utilized (150 instead of 50 μl), which was extracted as outlined above using however three-fold more acetonitrile for the extraction. Sensitivity was increased by evaporating the extract and reconstituting the residue in a mixture of 150 μl of mobile phase A and mobile phase B (9/1 v/v). […] In future, it will also be considered to inject a larger amount of extract, which is in a first step retained and concentrated on a trapping column. In a second step, the direction of the flow is inverted and so that the sample can be loaded and eluted on the analytical column. This column switching procedure, will increase the sensitivity in the event that the sample can be retained on the trap column. Importantly, the time-consuming solvent evaporation step can thereby be avoided.

Row | Compound | Tmax (human, 5 ug, single oral dose of 5 μg LSD base, read-out: Tmax (time of peak plasma level post-treatment)) [h] | maximal plasma level (average) [pg/mL] | Tmax (time of peak plasma level post-treatment) (single oral dose of 5 μg LSD base) [h]
1 | CCN(CC)C(=O)[C@@H]1C=C2c3cccc4[nH]cc(c34)C[C@H]2N(C)C1 [LSD, Lysergic acid diethylamide] | ~1 | 178 | –
2 | CCN(CC)C(=O)C1C=C2c3cccc4c3C(O)(C[C@H]2N(C)C1)C(=O)N4 (stereo partly shown) [O-H-LSD, 2,3-dihydro-3-hydroxy-2-oxo lysergide] | – | 10.4 | 3
